Test system: Cochliobolus miyabeanus
Test: Activity against brown spot of rice caused by Cochliobolus miyabeanus, protective application
Type: in vivo
Settings: individual active compound, evaluated after 6 days
Procedure: The active compounds, separately or jointly, were prepared as a stock solution comprising 0.25% by weight of active compound in acetone or DMSO. 1% by weight of the emulsifier Uniperol® EL (wetting agent having emulsifying and dispersing action based on ethoxylated alkylphenols) was added to this solution, and the mixture was appropriately diluted with water to the desired concentration.
Use example—Activity against brown spot of rice caused by Cochliobolus miyabeanus, protective application Leaves of rice seedlings of the cultivar “Tai-Nong 67” which had been grown in pots were sprayed to runoff point with an aqueous suspension having the concentration of active compound stated below. The next day, the plants were inoculated with an aqueous spore suspension of Cochliobolus miyabeanus. The test plants were then placed in climatized chambers at 22-24° C. and 95-99% relative atmospheric humidity for 6 days. The extent of the development of infection on the leaves was then determined visually.
The visually determined values for the percentage of infected leaf area were converted into efficacies as a % of the untreated control:
The efficacy (E) is calculated as follows using Abbot's formula: E=(1−α/β)·100 α corresponds to the fungal infection of the treated plants in % and β corresponds to the fungal infection of the untreated (control) plants in % An efficacy of 0 means that the infection level of the treated plants corresponds to that of the untreated control plants; an efficacy of 100 means that the treated plants are not infected.
The expected efficacies of the mixtures of active compounds were determined using Colby's formula [R. S. Colby, “Calculating synergistic and antagonistic responses of herbicide combinations”, Weeds, 15, 20-22 (1967)] and are compared with the observed efficacies.
Colby's formula: E=x+y−x·y/100
E expected efficacy, expressed in % of the untreated control, when using the mixture of the active compounds A and B at the concentrations a and b x efficacy, expressed in % of the untreated control, when using active compound A at the concentration a y efficacy, expressed in % of the untreated control, when using active compound B at the concentration b

SMILES	Efficacy in % of the untreated control (3.1 ppm in the spray liquor) [%]	Efficacy in % of the untreated control (6.25 ppm in the spray liquor) [%]	Efficacy in % of the untreated control (12.4 ppm in the spray liquor) [%]
CC1CCN(c2c(-c3c(F)cc(F)cc3F)c(Cl)nc3ncnn23)CC1 [I, 5-chloro-7-(4-methylpiperidin-1-yl)-6-(2,4,6-trifluorophenyl)[1,2,4]tri-azolo[1,5-a]pyrimidine]	22	56	
CC12CC1(C)C(=O)N(c1cc(Cl)cc(Cl)c1)C2=O (stereo not shown) [II (procymidone), 3-(3,5-dichlorophenyl)-1,5-dimethyl-3-aza-bicyclo[3.1.0]hexane-2,4-dione]		22	44

From patent US20070259897A1, “Fungicidal Mixtures” (BASF Aktiengesellschaft, priority 2004, published 2007)
